Experimental data reported in patent publication US20180289655A1, “Methods and Compositions for the Intravenous Administration of Fumarates for the Treatment of Neurological Diseases” (Biogen MA Inc., priority 2015, published 2018).
Entries after “also recorded” stand apart in the source; their conditions may differ. Where a name gives a salt, the structure may show the parent alone. Read-outs that look alike come from different tables or passages of the source.

Tests used:
[1] = tested on: prototypical Nrf2 response genes (Akr1b8, Gclc, Hmox1, Nqo1, Txnrd1, Osgin1); assay: qRT-PCR of Nrf2 response genes in tissues after DMF PO or IV; assay type: in vivo, Sprague-Dawley rats; details: for Nrf2 genes significantly modulated, forebrain / Nrf2 genes significantly modulated, jejunum / Nrf2 genes significantly modulated, kidney / Nrf2 genes significantly modulated, cerebellum / Nrf2 genes significantly modulated, spleen: 2 and 6 hours, vs vehicle
Procedure: On Day 5 of the study 3 time points were evaluated: 10 minutes, 2 hours, and 6 hours after dosing, as illustrated in the timeline. At each time point, 5 animals from each group were sacrificed. At the 2 and 6 hour time points, the tissue samples from groups E, F, I, and J from each animal were split, with half of the tissue being processed for MMF exposure, and half processed for qRT-PCR. Note vehicle groups (C, D, G, and H) were not processed for MMF measurement and only used for qRT-PCR.
Two and 6 hours after dosing, cohorts of animals from Groups C, D, E and F and G, H, I and J, respectively, were sacrificed and tissues (forebrain, cerebellum, jejunum, kidney, and spleen) were collected for RNA analysis by qRT-PCR for expression of prototypical Nrf2 response genes.
For RNA preparation, frozen tissues were placed in 2 mL RNAse-free 96-well blocks with 1.5 mL QIAzol Lysis Reagent (QIAgen) and a 3.2 mm stainless steel bead (BioSpec Products, Bartlesville, Okla.). Tissues were disrupted for four cycles of 45 seconds in a Mini-Beadbeater (Biospec Products). RNA was extracted in chloroform and the aqueous phase was mixed with an equal volume of 70% ethanol. Extracted RNA was applied to RNeasy 96 plates and purified by the spin method according to the manufacturer's protocol (RNeasy 96 Universal Tissue Protocol, QIAgen, Hilden Germany).
Samples were reverse-transcribed into cDNA according to the manufacturer's protocols (Life Technologies, Carlsbad, Calif.) and analyzed by real-time polymerase chain reaction (qPCR). Rat target gene primers and 6-FAM™ dye-labeled TaqMan® MGB™ probes (Life Technologies) were used. Reactions containing 100 ng of cDNA, 900 nM of each primer, and 250 nM TaqMan probes were cycled on a QuantStudio 12 k-flex system (Life Technologies) once for 10 minutes at 95° C., followed by 40 cycles of 95° C. for 10 seconds and 60° C. for 1 minute. All samples were measured in triplicate with Gapdh as a normalizing gene. Taqman primer/probe sets from Life Technologies included: Akr1b8 (Rn00756513_m1); Gclc (Rn00689046_m1); Hmox1 (Rn01536933_m1); Nqo1 (Rn00566528_m1); Txnrd1 (Rn01503798_m1); Osgin1 (Rn00593303_m1) and Gapdh (Rn01775763_g1). Final analysis was performed using the comparative CT method to calculate fold changes and samples were normalized relative to vehicle controls at each time point. In all graphs, the mean fold-change (±standard deviation) is depicted.

[2] = MMF exposure in malonate model 30 min after last oral dose of DMF; assay type: in vivo, Sprague-Dawley rats; details: 30 minutes after last oral dose of DMF, all doses
Procedure: The study and blank brain samples was transferred into Tissue Tubes (TT1) (purchased from Covaris, Inc) and attached to a borosilicate glass tube and placed on dry ice for a minimum of 15 minutes. The samples were pulverized using the Cryoprep System (Covaris Inc.) and transferred to glass tube prior to homogenization. For every 1 part (i.e. 100 mg) of tissue, 2 parts (i.e. 200 μL) of water with 15 mg/mL NaF was added to each glass tube. The tissues were homogenized at 4° C. using Covaris E210 for approximately 3 minutes per sample. The Covaris settings were as follows: Duty Cycle 20%, Intensity 10, and Cycles/Burst 1000. After homogenization […] acetonitrile was added to each glass tube, which was equal to the volume of water added in previously. The homogenates were homogenized with the E210 for an additional 30 sec per sample. […]
Study plasma samples were on ice. […] A 50 μL aliquot of sample (study samples, blank control, calibration standard or QC sample) was manually transferred into a 96-well plate according to a pre-determined layout. […]
The HPLC system used consisted of an Agilent 1200 binary pump with a Leap CTC PAL refrigerated autosampler. […] The instrument was equipped with TIS source in negative mode and the analyte was monitored in the MRM mode. […] The concentrations for unknown samples were calculated against Standards. […]

[3] = Solubility of DMF in aqueous media at 37° C.; assay type: physicochemical; details: thermodynamic from solid

With `COC(=O)/C=C/C(=O)OC` [DMF, dimethyl fumarate] the “Nrf2 genes significantly modulated, forebrain” value ([1]; DMF IV 30 mg/kg) was “significant modulation of Nqo1, Osgin1, Akr1b8, and Hmox1 at both 2 and 6 hours”, the “Nrf2 genes significantly modulated, jejunum” value ([1]; DMF IV 30 mg/kg) was “significant increases were observed for Nqo1 and Hmox1 at 6 hours, and in Osgin1 expression at 2 hours” and the “Nrf2 genes significantly modulated, kidney” value ([1]; DMF IV 30 mg/kg) was “significant modulation of Nqo1 and Txnrd1 at 2 and 6 hours, and Hmox1 only at 2 hours”. For the same compound, the “Nrf2 genes significantly modulated, cerebellum” value ([1]; DMF IV 30 mg/kg, 30 mg/kg) was “significant modulation was observed for Nqo1, Osgin1, Akr1b8, and Hmox1 at both 2 and 6 hours; also recorded: significant increase in the transcriptional responses of Gclc and Txnrd1 in the cerebellum, but only at the later 6-hour time point”, the “Nrf2 genes significantly modulated, spleen” value ([1]; DMF IV 30 mg/kg, 30 mg/kg) was “significant transcriptional increases were noted for Osgin1 at both 2 and 6 hour time points; also recorded: significant changes in Akr1b8 and Txnrd1 were observed only at the 2 hour time point; also recorded: A significant change in Nqo1 was also found 6 hours after DMF IV dosing” and the “Hmox1 expression in spleen” value ([1]; DMF PO 100 mg/kg or IV 30 mg/kg) was “No changes were observed”. The “Nrf2 genes significantly modulated, cerebellum” value ([1]; DMF PO 100 mg/kg) was “significant modulation of 3 genes in cerebellar tissue: Osgin1 at 2 and 6 hours, Akr1b8 at 2 hours, and Hmox1 at the 6 hour time point”, the “Nrf2 genes significantly modulated, forebrain” value ([1]; DMF PO 100 mg/kg) was “modulation of only two genes: Osgin1 at 2 and 6 hours and Akr1b8 only at 2 hours” and the “Nrf2 genes significantly modulated, spleen” value ([1]; DMF PO 100 mg/kg) was “significant increases in Nqo1, Osgin1, Akr1b8, Gclc, and Txnrd1 at both 2 and 6 hours”. For the same compound, the “Nrf2 genes significantly modulated, jejunum” value ([1]; DMF PO 100 mg/kg, 100 mg/kg) was “significant increases in Osgin1, Akr1b8, and Txnrd1 at both 2 and 6 hours; also recorded: Nqo1 expression was increased after PO DMF dosing only at the 6-hour time point; also recorded: significant increases in Gclc and Hmox1 were observed at the 2-hour time point”, the “Nrf2 genes significantly modulated, kidney” value ([1]; DMF PO 100 mg/kg, 100 mg/kg) was “significant changes at both 2 and 6 hour time points for Nqo1, Hmox1, and Txnrd1; also recorded: Osgin1 was significantly modulated only at the 2 hour time point” and the “Relationship of MMF exposure (10 minutes) and pharmacodynamic response (2 or 6 hours)” value ([1]; forebrain, kidney and spleen, PO 100 mg/kg and IV 30 mg/kg) was “clear positive correlation in MMF exposure and pharmacodynamic response”. For the same compound, the “MMF concentration in plasma, brain and CSF” value [2] was “significantly higher in the plasma as compared to both, the Brain and the CSF; also recorded: dose-dependent increase in plasma, CSF and brain concentration of MMF”, the solubility at 24 h ([3]; pH 2 citrate buffer, pH 2, aqueous buffer, pH 2 Citrate Buffer, pH 1.93, read-out: Solubility) was 3770 µg/mL and the solubility at 24 h ([3]; pH 2 citrate buffer, pH 2, aqueous buffer, pH 2 Citrate Buffer, read-out: Solubility Description) was 1000 to 10000 µg/mL. The solubility at 24 h ([3]; pH 4 citrate buffer, pH 4, aqueous buffer, pH 4 Citrate Buffer, pH 3.89, read-out: Solubility) was 3320 µg/mL, the solubility at 24 h ([3]; pH 4 citrate buffer, pH 4, aqueous buffer, pH 4 Citrate Buffer, read-out: Solubility Description) was 1000 to 10000 µg/mL and the solubility at 24 h ([3]; pH 6 citrate buffer, pH 6, aqueous buffer, pH 6 Citrate Buffer, pH 6.01, read-out: Solubility) was 3470 µg/mL. It also gave a solubility at 24 h ([3]; pH 6 citrate buffer, pH 6, aqueous buffer, pH 6 Citrate Buffer, read-out: Solubility Description) of 1000 to 10000 µg/mL, a solubility at 24 h ([3]; pH 8 borate buffer, pH 8, aqueous buffer, pH 8 Borate Buffer, pH 5.44, read-out: Solubility) of 4020 µg/mL and a solubility at 24 h ([3]; pH 8 borate buffer, pH 8, aqueous buffer, pH 8 Borate Buffer, read-out: Solubility Description) of 1000 to 10000 µg/mL. It also gave a solubility at 24 h ([3]; pH 10 borate buffer, pH 10, aqueous buffer, pH 10 Borate Buffer, pH 5.49, read-out: Solubility) of 3570 µg/mL, a solubility at 24 h ([3]; pH 10 borate buffer, pH 10, aqueous buffer, pH 10 Borate Buffer, read-out: Solubility Description) of 1000 to 10000 µg/mL and a solubility at 24 h ([3]; simulated gastric fluid (SGF, without pepsin), pH 6.9, simulated gastric fluid, SGF (without pepsin), pH 6.90, read-out: Solubility) of 2950 µg/mL. The solubility at 24 h ([3]; simulated gastric fluid without pepsin, pH 1.2, simulated gastric fluid, SGF (without pepsin), read-out: Solubility Description) was 1000 to 10000 µg/mL, the solubility at 24 h ([3]; simulated intestinal fluid (SIF, without pancreatin), pH 1.2, fassgf or other biorelevant, SIF (without pancreatin), pH 1.20, read-out: Solubility) was 3110 µg/mL and the solubility at 24 h ([3]; simulated intestinal fluid without pancreatin, pH 6.9, fassgf or other biorelevant, SIF (without pancreatin), read-out: Solubility Description) was 1000 to 10000 µg/mL. It also gave a solubility at 24 h ([3]; water, pH 5.2, water, Water, pH 5.20, read-out: Solubility) of 2840 µg/mL and a solubility at 24 h ([3]; water, pH 5.2, water, Water, read-out: Solubility Description) of 1000 to 10000 µg/mL.
